Experimental data as given in PubChem BioAssay (NCI).
Values joined by “and” are separate entries in the source; they are usually repeats but may differ in a detail not shown here. Identical values can stand only once.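 Values below derive from 48-hour exposures of cells grown in 96-well plates, with endpoints linearly interpolated between the two concentrations bracketing the appropriate inhibition level. The concentration for 50% growth inhibition is given as GI50. Definition used: TGI = concentration required for complete inhibition of growth.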

What was measured:
Experiment in all cases: NCI-60 cell line screen, 48 h
BT-549 breast = test system: BT-549 breast
MCF7 breast = test system: MCF7 breast
NCI/ADR-RES ovarian = test system: NCI/ADR-RES ovarian
PC-3 prostate = test system: PC-3 prostate
LXFL 529 NSCLC = test system: LXFL 529 NSCLC
MDA-N = test system: MDA-N

| SMILES | GI50 (BT-549 breast) | TGI (BT-549 breast) | GI50 (MCF7 breast) | TGI (MCF7 breast) | GI50 (NCI/ADR-RES ovarian) | TGI (NCI/ADR-RES ovarian) [µM] | GI50 (PC-3 prostate) | TGI (PC-3 prostate) | TGI (LXFL 529 NSCLC) [µM] | TGI (MDA-N) [µM] |
| --- | --- | --- | --- | --- | --- | --- | --- | --- | --- | --- |
| c1cnn2ncc(-c3ccnc(Nc4ccc5c(c4)OCCO5)n3)c2c1 | 58.8 nM | 0.2 µM | 79.7 nM | > 25 µM | 78.1 nM | 1.65 | 95.5 nM | > 25 µM | – | – |
| COc1ccc(-c2c(C3=NCCCN3)nnn2-c2ccc([N+](=O)[O-])cc2)cc1 | – | – | – | – | – | – | – | – | > 100 | – |
| CC1OC(c2ccc3c(c2O)C(=O)C2=C(C3=O)C3(O)C(=O)CC(C)(O)CC3(O)C=C2)CC(O)C1O (centres undefined) | – | 32.8 µM | – | 9 µM | – | 51.8 | – | 65.7 µM | – | 11.7 |
| OCc1ccc(N2CCOCC2)cc1Cl | > 100000 nM | > 100 µM | 15800 nM | > 100 µM | > 100000 nM | > 100 | > 100000 nM | > 100 µM | – | – |
| O=C1/C(=C/c2ccc([N+](=O)[O-])cc2)COc2ccc(O)cc21 | 18500 nM | 50.4 µM | 1230 nM | 2.8 µM | 16900 nM | > 100 | 2580 nM | 7.27 µM | – | – |
| COc1ccc(-c2cnoc2-c2cc(OC)c3c(c2)OCCO3)cc1 | 73 nM | 27.8 µM | 30.4 nM | > 100 µM | < 13.2 nM | 49.5 | 37.7 nM | > 100 µM | – | – |
| c1ccc2[nH]c(CNc3ccc(C4C[Se]N=N4)cc3)nc2c1 (centres undefined) | – | – | – | – | – | – | – | – | 67.7 | – |
| O=C1c2cccc3cccc(c23)C(=O)N1O | – | > 100 µM | – | > 100 µM | – | > 100 | – | > 100 µM | – | > 100 |
| O=C(O)c1ccccc1C(=O)c1ccc2c(c1)Cc1ccccc1-2 | – | > 100 µM | – | > 100 µM | – | > 100 | – | > 100 µM | – | > 100 |
| CCCCCCCCCCCCCC[n+]1cccc(C(N)=O)c1 | – | – | 2620 nM | 11.4 µM | 25600 nM | > 80.3 | 598 nM | 2.94 µM | – | – |
| COc1ccc(C2=C(N3CCc4ccccc43)C(=O)NC2=O)cc1 | 24200 nM | > 25 µM | > 25000 nM | > 25 µM | > 25000 nM | > 25 | > 20200 nM | > 25 µM | – | – |
| Clc1ccc2c(c1)N(c1ncnc3ccc(-c4cnc5[nH]ncc5c4)cc13)CC2 | 676 nM | > 100 µM | 228 nM | > 100 µM | – | – | 458 nM | > 100 µM | – | – |
| COc1ccc(Nc2nccc(N3CCN(c4c5ccc(Cl)cc5nc5ccc(OC)cc45)CC3)n2)cc1 | 14400 nM | > 100 µM | 3670 nM | > 100 µM | 7410 nM | > 100 | – | – | – | – |
| COc1ccc(C(=O)c2nc3ccccc3n2CC(=O)c2ccc(Cl)cc2)cc1 | 4110 nM | > 100 µM | 2100 nM | > 100 µM | 1200 nM | > 21.3 | 3090 nM | > 100 µM | – | – |
| C/C1=C\CC[C@@](C)(O)[C@@H]2C[C@H](CC/C(C)=C/CC1)C1(CC1)C(=O)O2 | 25500 nM | 69.7 µM | 66900 nM | > 100 µM | 28300 nM | > 100 | 27800 nM | 69.4 µM | – | – |
| Cc1cc(C)n(C2=NS(=O)(=O)c3ccccc3N2C)n1 | – | > 100 µM | – | > 100 µM | – | > 100 | – | > 100 µM | – | > 100 |
| Cc1cc2c(cc1Cl)S/C(=C/C(=O)O)C(Nc1cccc3nsnc13)=NS2(=O)=O | – | 1.38 µM | 32700 nM | > 76.2 µM | > 40200 nM | > 58.9 | 41000 nM | > 75.8 µM | – | – |
| Cc1ccc(NC(=O)/C(Cc2cc(=O)oc3cc(O)ccc23)=N\NC(=O)C[N+](C)(C)C)cc1C | – | > 100 µM | – | > 100 µM | – | > 100 | – | > 100 µM | – | > 100 |
| CC1(C)CC(=O)C(CC2C(=O)c3ccccc3C2=O)C(=O)C1 | – | – | – | – | – | – | – | – | > 100 | – |
| O=C(NCCN1CCNCC1)c1ccc(Nc2nc3ccccc3c3occc23)cc1 | 2720 nM | 18.2 µM | 30200 nM | > 100 µM | 21000 nM | 46.5 | 11100 nM | 29.8 µM | – | – |
| Cc1ccc(NC(=O)/C(Cc2nc3ccc([N+](=O)[O-])cc3[nH]c2=O)=N\NC(=O)C[n+]2ccccc2)c(C)c1 | – | > 100 µM | – | > 100 µM | – | > 100 | – | > 100 µM | – | > 100 |
| CCOC(=O)N1CCN(CCCCCOc2ccccc2C2CCCCC2)CC1 | 3000 nM | 11.3 µM | 3200 nM | 13.1 µM | 2050 nM | 5.66 | 2600 nM | 13 µM | – | – |

| SMILES | GI50 (BT-549 breast) | TGI (BT-549 breast) | GI50 (MCF7 breast) | TGI (MCF7 breast) | GI50 (NCI/ADR-RES ovarian) | TGI (NCI/ADR-RES ovarian) [µM] | GI50 (PC-3 prostate) | TGI (PC-3 prostate) | TGI (LXFL 529 NSCLC) [µM] | TGI (MDA-N) [µM] |
| --- | --- | --- | --- | --- | --- | --- | --- | --- | --- | --- |
| Cc1cccc(N=Nc2ccc(N=Nc3c(O)ccc4ccccc34)cc2C)c1 | – | > 100 µM | – | > 100 µM | – | 50.7 | – | > 100 µM | – | – |
| COc1ccc(F)c(F)c1C(=O)c1cnc(NC2CCN(S(C)(=O)=O)CC2)nc1N | 1520 nM and 1020 nM | 5.86 µM and 5.52 µM | 67.4 nM and 45.8 nM | > 100 µM | 2630 nM and 1650 nM | > 100 | 385 nM and 411 nM | 5.44 µM and 5.92 µM | – | – |
| CN1c2ccccc2SC2C(c3ccccc3)=NOC21 (centres undefined) | – | 68.4 µM | – | > 100 µM | – | 87.3 | – | 71 µM | – | 52.8 |
| CCN(CC)c1ccc(/C=C/C2=[N+](C)c3ccccc3C2(C)C)c(C)c1 | < 30.9 nM | 1.24 µM | 57.4 nM | 1.62 µM | 2240 nM | 13 | 22.5 nM | 1.67 µM | – | – |
| CC1c2ccccc2N=C2SC(=S)N3CCN=C3N21 (centres undefined) | > 100000 nM | > 100 µM | > 100000 nM | > 100 µM | > 100000 nM | > 100 | > 100000 nM | > 100 µM | – | – |
| [2H]c1nc(=Nc2cc(NC(=O)C=C)c(N(C)CCN(C)C)cc2OC)[nH]c(-c2cn(C([2H])([2H])[2H])c3ccccc23)c1[2H] | 1520 nM | 3.25 µM | 1390 nM | 3.23 µM | 1390 nM | 5.02 | 1610 nM | 3.5 µM | – | – |
| O=C(/C=C/c1cccc(O)c1)c1cccc(-n2cc(-c3ccc4ccccc4c3)[nH]c2=O)c1 | 1890 nM | 5.14 µM | 471 nM | 1.83 µM | 1550 nM | 5.83 | 1850 nM | 7.9 µM | – | – |
| CCn1c(-c2nonc2N)nc2ccncc21 | > 25000 nM | > 25 µM | > 25000 nM | > 25 µM | > 25000 nM | > 25 | > 25000 nM | > 25 µM | – | – |
| COc1c(O)c(OC)c2oc(-c3ccc(O)cc3)c(OC)c(=O)c2c1O | – | > 100 µM | – | > 100 µM | – | > 100 | – | > 100 µM | – | > 100 |
| Nc1cc(-c2ccc(Cl)cc2)nn1-c1nnc(/C=C/c2ccco2)c(=O)[nH]1 | 5620 nM | 55.5 µM | 2950 nM | 26.1 µM | 1480 nM | 10.5 | 8950 nM | > 75 µM | – | – |
| CC(C)(C)c1ccc(OC2CCO2)cc1 (centres undefined) | – | – | – | – | – | – | – | – | > 100 | – |
| O=[N+]([O-])c1ccc(-c2cc3c(Nc4ccc(Cl)c(C(F)(F)F)c4)ncnc3s2)cc1 | 2910 nM | > 100 µM | 982 nM | > 100 µM | 1360 nM | > 100 | 802 nM | > 100 µM | – | – |
| N#CC(C#N)=c1c2nsnc2c(=C(C#N)C#N)c2nsnc12 | – | – | – | – | – | – | – | – | 2.99 | – |
| O=C(c1cccs1)C1NO[N+]([O-])=C1c1cccs1 (centres undefined) | 9410 nM | 21.2 µM | 4840 nM | 16.3 µM | 3420 nM | 18.9 | 8430 nM | 22.3 µM | – | – |
| CCOc1ccc(Nc2c3ccccc3nc3ccccc23)cc1 | 478 nM and 556 nM | 9.51 µM and 10.2 µM | 318 nM and 297 nM | 4.2 µM and 4.23 µM | 271 nM and 117 nM | 0.588 | 392 nM and 748 nM | 7.29 µM and 5.61 µM | – | – |
| CC(C)[O-].CC(C)[O-].CN(CCN(C)Cc1cc(F)cc(F)c1[O-])Cc1cc(F)cc(F)c1[O-].[Ti+4] | 1950 nM | 5.92 µM | 687 nM | 2.78 µM | 863 nM | 7.05 | 1230 nM | 5.43 µM | – | – |
| c1ccc(-c2nc(N3CCCNCC3)c3nc(-c4ccccc4)oc3n2)cc1 | – | – | 1670 nM | 3.34 µM | 1910 nM | 3.86 | – | – | – | – |
| O=C1c2ccccc2-c2c1c1c(NCCCO)nc3ccccc3c1n2Cc1ccccc1 | 21100 nM | 43.7 µM | 17200 nM | 31 µM | 18200 nM | 49.4 | – | – | – | – |
| CC(C)Oc1ccc(C(=O)Cn2ccnc2)cc1-n1c(CN2CCN(C(=O)COc3ccc(Cl)cc3)CC2)nc2ccccc2c1=O | 13500 nM | 30.9 µM | 12000 nM | 35.5 µM | > 100000 nM | > 100 | 9440 nM | 37.2 µM | – | – |
| Cc1ccc(-n2nc(C(C)(C)C)cc2NC(=O)NCc2cc(F)ccc2Oc2ccc3c(cnn3CCO)c2)cc1 | > 10000 nM and 4680 nM | > 96.1 µM | 3550 nM and 3260 nM | > 10 µM and 51.7 µM | > 10000 nM and 7500 nM | > 100 | > 10000 nM and 5280 nM | > 100 µM | – | – |
| O=C(Cl)C1=C(c2ccccc2)C1c1ccccc1 (centres undefined) | – | > 100 µM | – | > 100 µM | – | – | – | > 100 µM | – | > 100 |
